Literature values as cited in patent US20110290119A1, “ANTIMICROBIAL ELECTRET WEB” (3M Innovative Properties Company, priority 2009, published 2011).

Test system: Ps. aeruginosa (gram negative)
Conditions: known

Question: Which microbial load reduction does the source give for `O=C1OC2(c3cc(I)c(O)c(I)c3Oc3c2cc(I)c(O)c3I)c2c(Cl)c(Cl)c(Cl)c(Cl)c21` [rose bengal, 4,5,6,7-Tetrachloro-3′,6′-dihydroxy-2′,4′,5′,7′-tetraiodo-3H-spiro[isobenzofuran-1,9′-xanthen]-3-one] here?
Answer: Its microbial load reduction is “not particularly effective”.
